Laboratory results taken from patent US20200246317A1, “METHODS OF TREATING DIABETIC NEUROPATHY WITH A THIAZOLINE ANTI-HYPERALGESIC AGENT” (CERSCI THERAPEUTICS, INC., priority 2019, published 2020).
Where a name gives a salt, the structure may show the parent alone.

What was measured:
[1] = Gravimetric Vapor Sorption (GVS); format: physicochemical
Description: The sample is hygroscopic.

[2] = Stability of dose formulations for GLP toxicology studies (0.5% HPMC); format: physicochemical; details: 1.0 to 200 mg/mL in 0.5% HPMC
Method: Formulation analysis and bioanalytical methods were validated for all GLP studies. Formulation of Compound 1 in water was validated over a range of 1 to 200 mg/mL using HPLC and in 0.5% hydroxypropyl methylcellulose (HPMC) over the same range.
Dose formulation analysis for all good laboratory practice (GLP) general toxicology studies was performed using a validated high-performance liquid chromatography (HPLC)/ultraviolet (UV) analytical method (2750-001-001 Dose Formulation Method 1). The vehicle used in the in vivo toxicology studies was 0.5% HPMC). The analytical method utilized HPLC with monitoring at 227 nm with an isocratic mobile phase of methanol with the column temperature set to 25° C. Linearity over a range of 1.0 to 200 mg/mL was observed. Dose formulations over this range were stable at room temperature for up to 13 days and were stable when stored frozen at −20° C. for up to 85 days.

[3] = system: STZ-induced mechanical allodynia; assay: Diabetic neuropathy model of FIG. 10 (STZ, mechanical hypersensitivity); format: in vivo, mice; details: STZ on day −7
Method: Streptozotocin (STZ) destroys insulin-producing cells and generates a diabetic phenotype in mice. Animals were dosed with STZ on day −7. By day 0, animals are hyperglycemic and hyperalgesic (day 0 BL).

[4] = system: methylglyoxal-induced diabetic neuropathy; assay: Rat model of diabetic neuropathy, methylglyoxal-induced; format: in vivo; details: methylglyoxal-induced (overview)
[5] = system: hypersensitivity caused by an injury/insult such as an incision or irritant; assay: Hypersensitivity caused by an injury/insult (incision or irritant); details: in vivo
[6] = system: uninjured animals; assay: Normal sensation in uninjured animals; format: in vivo; details: given to uninjured animals
[7] = Rat brain distribution and pharmacokinetic study; format: in vivo
Description: A rat brain distribution study performed in order to determine standard pharmacokinetic parameters and to assess the brain penetration properties of Compound 1 administered orally and intravenously.

[8] = Stability in hepatocytes, rat; format: in vitro ADME
[9] = Excretion in rats; format: in vivo, rat
[10] = molecular target: T1, P-gp (MDR1/ABCB1) (Homo sapiens, UniProt P08183); assay: Inhibition of transporters, P-gp (Caco-2 cells, digoxin); format: in vitro ADME
T1 construct: Caco-2 cells; endogenous in cells; host or cells: Caco-2 cells

[11] = molecular target: T2, BCRP (ABCG2) (Homo sapiens, UniProt Q9UNQ0); assay: Inhibition of transporters, BCRP (MDCKII cells, prazosin); format: in vitro ADME
T2 construct: expressed in transfected cells; host or cells: MDCKII-BCRP cells (with MDCKII control cells)
T2 sequence (Q9UNQ0 1-655): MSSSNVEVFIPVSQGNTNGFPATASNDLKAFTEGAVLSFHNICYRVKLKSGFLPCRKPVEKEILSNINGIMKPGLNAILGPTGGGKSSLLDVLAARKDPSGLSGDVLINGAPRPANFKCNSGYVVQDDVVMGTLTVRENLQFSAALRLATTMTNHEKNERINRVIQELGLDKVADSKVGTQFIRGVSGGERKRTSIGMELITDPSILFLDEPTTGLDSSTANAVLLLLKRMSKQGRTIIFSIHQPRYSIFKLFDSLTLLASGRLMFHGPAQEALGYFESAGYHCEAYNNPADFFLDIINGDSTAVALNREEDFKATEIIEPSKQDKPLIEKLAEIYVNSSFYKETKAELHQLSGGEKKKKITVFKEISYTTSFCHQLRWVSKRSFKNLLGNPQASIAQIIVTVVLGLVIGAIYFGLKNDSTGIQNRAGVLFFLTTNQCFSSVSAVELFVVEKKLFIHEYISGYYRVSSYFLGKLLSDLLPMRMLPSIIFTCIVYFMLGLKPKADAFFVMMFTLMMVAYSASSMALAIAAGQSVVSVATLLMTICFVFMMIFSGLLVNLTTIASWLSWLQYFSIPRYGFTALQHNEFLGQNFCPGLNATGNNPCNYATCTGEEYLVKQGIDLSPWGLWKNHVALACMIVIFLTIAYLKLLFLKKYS

[12] = molecular target: T3, OAT1 (Homo sapiens, UniProt Q4U2R8); assay: Inhibition of transporters, OAT1 (HEK293 cells); format: in vitro ADME
T3 construct: expressed in transfected cells; host or cells: HEK293 cells
T3 sequence (Q4U2R8 1-563): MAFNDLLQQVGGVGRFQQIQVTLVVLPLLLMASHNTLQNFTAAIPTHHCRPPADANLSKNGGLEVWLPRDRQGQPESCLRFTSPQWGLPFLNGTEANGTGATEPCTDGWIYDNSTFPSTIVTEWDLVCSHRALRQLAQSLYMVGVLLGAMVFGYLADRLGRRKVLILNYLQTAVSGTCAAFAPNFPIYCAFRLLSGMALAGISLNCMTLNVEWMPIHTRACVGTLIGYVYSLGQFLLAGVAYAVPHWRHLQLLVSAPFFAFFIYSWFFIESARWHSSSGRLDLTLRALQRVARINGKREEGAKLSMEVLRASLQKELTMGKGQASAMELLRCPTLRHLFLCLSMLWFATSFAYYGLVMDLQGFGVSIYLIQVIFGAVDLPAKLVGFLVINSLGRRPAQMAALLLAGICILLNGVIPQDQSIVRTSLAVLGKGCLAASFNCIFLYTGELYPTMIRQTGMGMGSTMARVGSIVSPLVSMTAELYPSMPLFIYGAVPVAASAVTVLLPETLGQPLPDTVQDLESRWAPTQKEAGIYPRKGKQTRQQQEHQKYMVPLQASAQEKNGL

T1 sequence (P08183 whole entry): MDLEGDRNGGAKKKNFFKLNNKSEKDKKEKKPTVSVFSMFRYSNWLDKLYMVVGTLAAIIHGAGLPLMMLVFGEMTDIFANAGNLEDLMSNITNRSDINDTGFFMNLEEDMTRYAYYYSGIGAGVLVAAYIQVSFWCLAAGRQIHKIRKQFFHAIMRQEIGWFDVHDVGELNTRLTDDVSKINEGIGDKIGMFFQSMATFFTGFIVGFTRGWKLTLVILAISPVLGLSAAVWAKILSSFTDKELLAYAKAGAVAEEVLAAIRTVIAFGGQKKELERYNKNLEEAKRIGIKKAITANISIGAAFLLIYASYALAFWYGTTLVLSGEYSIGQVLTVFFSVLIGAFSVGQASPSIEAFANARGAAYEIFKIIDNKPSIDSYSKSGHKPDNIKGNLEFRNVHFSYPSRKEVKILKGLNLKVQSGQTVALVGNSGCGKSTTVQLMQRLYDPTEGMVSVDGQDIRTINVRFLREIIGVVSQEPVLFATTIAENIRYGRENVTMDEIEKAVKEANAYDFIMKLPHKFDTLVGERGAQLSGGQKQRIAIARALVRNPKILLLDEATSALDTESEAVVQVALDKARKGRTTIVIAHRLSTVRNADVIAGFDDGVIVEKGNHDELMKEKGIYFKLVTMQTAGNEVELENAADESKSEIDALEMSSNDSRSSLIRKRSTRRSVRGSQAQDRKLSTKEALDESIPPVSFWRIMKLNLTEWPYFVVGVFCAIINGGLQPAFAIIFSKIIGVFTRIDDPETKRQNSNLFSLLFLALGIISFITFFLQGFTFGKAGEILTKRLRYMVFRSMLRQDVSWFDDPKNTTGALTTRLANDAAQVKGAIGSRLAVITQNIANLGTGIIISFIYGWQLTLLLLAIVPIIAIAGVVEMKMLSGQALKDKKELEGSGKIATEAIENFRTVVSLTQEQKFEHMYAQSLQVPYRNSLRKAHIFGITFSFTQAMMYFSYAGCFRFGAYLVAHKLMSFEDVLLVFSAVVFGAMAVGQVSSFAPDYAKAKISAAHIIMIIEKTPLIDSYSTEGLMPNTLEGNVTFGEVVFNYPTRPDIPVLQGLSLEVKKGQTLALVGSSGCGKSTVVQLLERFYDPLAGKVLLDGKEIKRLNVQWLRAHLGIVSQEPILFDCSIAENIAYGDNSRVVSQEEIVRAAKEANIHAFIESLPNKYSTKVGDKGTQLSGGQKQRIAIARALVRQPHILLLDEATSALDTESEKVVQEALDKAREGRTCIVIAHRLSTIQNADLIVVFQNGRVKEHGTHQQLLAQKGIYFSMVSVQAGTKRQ

CC1(C)SC(Nc2ccccc2O)=N[C@@H]1C(=O)O [Compound 1, (R)-2-(2-hydroxyphenylamino)-5,5-dimethyl-4,5-dihydrothiazole-4-carboxylic acid mono-hydrochloride]
hygroscopicity [1]: hygroscopic | stability of dose formulations, time stable ([2]; room temperature): up to 13 days | stability of dose formulations, time stable ([2]; stored frozen at −20° C.): up to 85 days | effect on STZ-induced mechanical allodynia [3]: blocks STZ-induced mechanical allodynia | effect on allodynia [4]: alleviates allodynia | reversal of hypersensitivity [5]: complete reversal of hypersensitivity | effect on normal sensation [6]: does not alter normal sensation | distribution to tissues and brain ([7]; overview): distributes to tissues but not to brain to an appreciable extent | bioavailability after oral administration ([7]; rat): bioavailable | elimination from the systemic circulation ([7]; rats): moderate rate | Oral bioavailability ([7]; rats, 30 mg/kg oral dose): 111% | oral absorption ([7]; rats, 30 mg/kg oral dose): rapidly and completely absorbed | peak plasma concentration ([7]; rats, 30 mg/kg oral dose): 9 µg/mL | terminal half-life ([7]; rats, 30 mg/kg oral dose): 1.6 h | time to peak plasma concentration ([7]; rats, 30 mg/kg oral dose): ≤ 1 h | stability in hepatocytes [8]: stable | form excreted into urine and feces [9]: primarily as a sulfate conjugate | inhibition of P-gp (in words) [10]: does not inhibit | inhibition of BCRP (in words) [11]: modestly inhibits | inhibition of OAT1 (in words) [12]: does not inhibit
